# Test system: brown adipose tissue PGC-1α and UCP-1
# Experiment: Brown adipose tissue morphology, qRT-PCR and immunoblot
# Format: in vivo, mouse
# Procedure: Total RNA was extracted from frozen tissues (kept at −80° C.) using Tri-Reagent (T9424, Sigma) as described elsewhere (16). Taqman RT-PCR primer and probe were used to determine mRNA for PGC-1α (Mm00447183_m1), UCP-1 (Mm00494069_m1), PPARδ (Mm01305434_m1) and CPT1b (Mm00487200_m1). The reagents were purchased from Applied Biosystems (Foster City, Calif.). Mouse ribosome 18S rRNA_s1 (without intron-exon junction) was used as an internal control. Reaction was conducted with 7900 HT Fast real time PCR System (Applied Biosystems, Foster City, Calif.).
# Fresh fat and muscles were collected and frozen in liquid nitrogen. The whole cell lysate protein was extract in lysis buffer with sonication and analyzed in western blot as described elsewhere (16). Antibodies were used in study of myoglobin (sc-25607, Santa Cruz), PGC-1 (sc-13068, Santa Cruz), Tubulin (ab7291, Abcam), myosin (M8421, Sigma), pAMPK (Thr 172, #2531, Cell signaling) and p-p38 (sc-7975, Santa Cruz). To detect multiple signals from one membrane, the membrane was stripped with a stripping buffer. Intensity of the immunoblot signal was quantified using a computer program, ImageJ 1.37v (NIH). The mean values of results from three experiments (6 mice each group) were presented. The antibodies to PGC-1α and UCP-1 were from Dr. Thomas Gettys at Pennington Biomedical Research Center, Baton Rouge, La.
# Fresh tissues (muscle, fat and liver) were collected at 16 weeks of age after 12 weeks butyrate feeding and fixed in 10% neutral buffered formalin solution (HT50-1-2, Sigma). The tissue slides were obtained through serial cross-section cutting at 8 um thickness and processed with a standard procedure. Briefly, the slides were deparaffinated and stained in haematoxylin (#101542, Surgipath) for 15 min, and rinsed in water until sections are blue. Then, slides were stained in Eosin (E4009, Sigma), dehydrated quickly in 95% ethanol and treated with […]. The sections were mounted and photographed with Nikon microscope (Eclipse TS100, Japan).
# In addition, the morphology and gene expression were examined in the brown fat of mice. Hematoxylin and eosin staining (H&E staining) was conducted on brown adipose tissues collected at 13 weeks on HFD. […] Compared to the control mice, the size of brown adipocytes was much smaller in the butyrate group (FIG. 4B), indicating a higher thermogenic activity that leads to the reduction in fat accumulation. Mitochondrial function is regulated by gene expression (24). To understand the molecular basis of the increased thermogenesis, the expression of two thermogenesis-related genes, such as PGC-1α and UCP-1, were examined in BAT. mRNA of both genes was increased in the butyrate-treated mice. Brown adipose tissues were collected at 13 weeks on HFD, and gene expression for PGC-1α and UCP-1 was examined by qRT-PCR. In addition, the corresponding proteins were assayed using a whole cell lysate (100 μg) resolved in SDS-PAGE and blotted with PGC-1α and UCP-1 antibodies. […] Data in FIGS. 4A-4D are presented as means±SE (n=9 mice). * P<0.05. This increase in gene expression provides a molecular basis for the enhanced thermogenesis by the butyrate treatment.
# [1] = butyrate 5% w/w in HFD 13 weeks, immunoblot
# [2] = butyrate 5% w/w in HFD 13 weeks, qRT-PCR
structure (smiles),measurement,setting,value
CCCC(=O)[O-].[Na+] [sodium butyrate],size of brown adipocytes,"butyrate 5% w/w in HFD 13 weeks vs control, H&E",much smaller
same,PGC-1α protein in brown fat,[1],also increased
same,UCP-1 protein in brown fat,[1],also increased
same,PGC-1α mRNA in BAT,[2],increased
same,UCP-1 mRNA in BAT,[2],increased

# Reference: US20130123358A1, “Metabolic Benefits to Butyrate as a Chronic Diet Supplement” (priority 2009, published 2013)
